This test has as its system up to 32 different microorganisms. Briefly: in vitro antibacterial activity (MIC), agar dilution on Brain Heart Infusion (BHI) agar with Steers replicator. The format is cell-based. The following applies: unit assumed. The procedure: Representative compounds of the present invention were assayed in vitro for antibacterial activity as follows: Twelve petri dishes containing successive aqueous dilutions of the test compound mixed with 10 mL of sterilized Brain Heart Infusion (BHI) agar (Difco 0148-01-5) were prepared. Each plate was inoculated with 1:100 (or 1:10 for slow-growing strains, such as Micrococcus and Streptococcus) dilutions of up to 32 different microorganisms, using a Steers replicator block. The inoculated plates were incubated at 35°-37° C. for 20 to 24 hours. In addition, a control plate, using BHI agar containing no test compound, was prepared and incubated at the beginning and end of each test.
An additional plate containing a compound having known susceptibility patterns for the organisms being tested and belonging to the same antibiotic class as the test compound was also prepared and incubated as a further control, as well as to provide test-to-test comparability. Erythromycin A was used for this purpose.
After incubation, each plate was visually inspected. The minimum inhibitory concentration (MIC) was defined as the lowest concentration of drug yielding no growth, a slight haze, or sparsely isolated colonies on the inoculum spot as compared to the growth control.

Setting [1] is: Candida albicans CCH 442 (code TT).
Setting [2] is: Enterococcus faecism ATCC 8043 (code II).
Where [3] appears, read: Escherichia coli DC-2 (code SS).
Where [4] appears, read: Escherichia coli JUHL (code QQ).
Setting [5] is: Haemophilis influenzae DILL AMP R (code WW).
[6] abbreviates: Micrococcus luteus ATCC 4698 (code PP).
Where [7] appears, read: Micrococcus luteus ATCC 9341 (code OO).
Setting [8] is: Mycobacterium smegmatis ATCC 114 (code UU).
Where [9] appears, read: Nocardia Asteroides ATCC9970 (code VV).
Where [10] appears, read: Staphylococcus aureus 1775 (code GG).
[11] abbreviates: Staphylococcus aureus A5177 (code BB).
Where [12] appears, read: Staphylococcus aureus A-5278 (code CC).
[13] abbreviates: Staphylococcus aureus ATCC 6538P (code AA).
[14] abbreviates: Staphylococcus aureus CMX 553 (code FF).
Setting [15] is: Staphylococcus aureus CMX 642A (code DD).
The mark [16] stands for this setting: Staphylococcus aureus NCTC10649M (code EE).
Setting [17] is: Staphylococcus epidermidis 3519 (code HH).
[18] abbreviates: Streptococcus Pneumonia 5649 (code ZZA).
The mark [19] stands for this setting: Streptococcus Pneumonia 5979 (code ZZ).
Setting [20] is: Streptococcus Pneumonia ATCC6303 (code XX).
Setting [21] is: Streptococcus Pneumonia GYR 1171 (code YY).
Where [22] appears, read: Streptococcus agalactiae CMX 508 (code KK).
Where [23] appears, read: Streptococcus bovis A-5169 (code JJ).
Setting [24] is: Streptococcus pyogenes 930 (code MM).
Where [25] appears, read: Streptococcus pyogenes PIU 2548 (code NN).

This note sets out measurements from patent USRE39591E1, “6-O-substituted ketolides having antibacterial activity” (Abbott Laboratories, priority 1996, dated 2007).

In brackets after ≈: the same amount, converted by molar mass.

For the compound `CCC1OC(=O)C(C)C(=O)C(C)C(OC2OC(C)CC(N(C)C)C2O)C(C)(OCC=Cc2ccc3cc(OC)ccc3c2)CC(C)C(=O)C(C)C2NC(=O)OC12C` (stereo not drawn) [Example 283, Compound of Formula (IX): L is CO, T is NH2, R is —CH2CH═CH-(6-methoxy-2-naphthyl)], the MIC by setting is: (organism code AA) 0.1 µg/mL; (organism code BB) 0.1 µg/mL; (organism code CC) 100 µg/mL; (organism code DD) 0.1 µg/mL; (organism code EE) 0.1 µg/mL; (organism code FF) 0.1 µg/mL. The MIC is 50 µg/mL (organism code GG); 0.2 µg/mL (organism code HH); 0.05 µg/mL (organism code II); 0.01 µg/mL (organism code JJ); 0.02 µg/mL (organism code KK); at most 0.005 µg/mL (organism code LL). In addition, the MIC is, setting by setting: (organism code MM) 3.1 µg/mL; (organism code NN) 0.2 µg/mL; (organism code OO) 0.01 µg/mL; (organism code PP) 0.2 µg/mL; (organism code QQ) over 100 µg/mL; (organism code RR) 0.78 µg/mL. Moreover, the MIC is over 100 µg/mL (organism code SS); over 100 µg/mL (organism code TT); 0.39 µg/mL (organism code UU); 0.2 µg/mL (organism code VV); 2 µg/mL (organism code WW); at most 0.004 µg/mL (organism code XX). Besides, the MIC is at most 0.004 µg/mL (organism code YY), 4 µg/mL (organism code ZZ) and 0.125 µg/mL (organism code ZZA).
In the case of `CCC1OC(=O)C(C)C(=O)C(C)C(OC2OC(C)CC(N(C)C)C2O)C(C)(OCC=Cc2cnc3ncccc3c2)CC(C)C(=O)C(C)C2NC(=O)OC12C` (stereo not drawn) [Example 202, R is —CH2CH═CH-(1,8-naphthyridin-3-yl)], the MIC (organism code XX) came out at 0.03 µg/mL (≈ 0.0391 µM), the MIC (organism code YY) was determined as 0.03 µg/mL (≈ 0.0391 µM), the MIC (organism code ZZ) came to 32 µg/mL (≈ 41.7 µM) and the MIC (organism code ZZA) came out at 2 µg/mL (≈ 2.61 µM).
For `C=CCO[C@@]1(C)C[C@@H](C)C(=O)[C@H](C)[C@H]2N(N)C(=O)O[C@]2(C)[C@@H](CC)OC(=O)[C@H](C)C(=O)[C@H](C)[C@H]1O[C@@H]1O[C@H](C)C[C@H](N(C)C)[C@H]1O` [Example 262, Compound of Formula (IX): L is CO, T is N(NH2), R is —CH CH═CH2], the MIC runs as follows: (organism code AA) 0.78 µg/mL; (organism code BB) 0.78 µg/mL; (organism code CC) over 100 µg/mL; (organism code DD) 0.78 µg/mL; (organism code EE) 0.78 µg/mL; (organism code FF) 0.78 µg/mL. Moreover, the MIC is over 100 µg/mL (organism code GG); 0.78 µg/mL (organism code HH); 0.39 µg/mL (organism code II); at most 0.005 µg/mL (organism code JJ); 0.05 µg/mL (organism code KK); 0.1 µg/mL (organism code LL). Further, the MIC is over 100 µg/mL (organism code MM); 0.78 µg/mL (organism code NN); 0.1 µg/mL (organism code OO); 0.39 µg/mL (organism code PP); over 100 µg/mL (organism code QQ); 1.56 µg/mL (organism code RR). Further, the MIC is, setting by setting: (organism code SS) over 100 µg/mL; (organism code TT) over 100 µg/mL; (organism code UU) 6.2 µg/mL; (organism code VV) 0.39 µg/mL; (organism code WW) 16 µg/mL; (organism code XX) 0.03 µg/mL. Moreover, the MIC by setting is: (organism code YY) 0.03 µg/mL; (organism code ZZ) over 128 µg/mL; (organism code ZZA) 0.5 µg/mL.
With `CC[C@H]1OC(=O)[C@H](C)C(=O)[C@H](C)[C@@H](O[C@@H]2O[C@H](C)C[C@H](N(C)C)[C@H]2O)[C@@](C)(OCC=NOCc2ccc3ncccc3c2)C[C@@H](C)C(=O)[C@H](C)[C@H]2NC(=O)O[C@@]21C` [Example 234, Compound of Formula (IX): L is CO, T is NH, R is —CH2CH═NOCH2(6-quinolyl)], the MIC by setting is: (organism code AA) 0.1 µg/mL; (organism code BB) 0.1 µg/mL; (organism code CC) over 100 µg/mL; (organism code DD) 0.2 µg/mL; (organism code EE) 0.2 µg/mL; (organism code FF) 0.1 µg/mL. The compound also yielded an MIC (organism code GG) of over 100 µg/mL; an MIC (organism code HH) of 0.1 µg/mL; an MIC (organism code II) of 0.05 µg/mL; an MIC (organism code JJ) of at most 0.005 µg/mL; an MIC (organism code KK) of 0.05 µg/mL; an MIC (organism code LL) of 0.01 µg/mL. In addition, the MIC reads like this: (organism code MM) 100 µg/mL; (organism code NN) 0.2 µg/mL; (organism code OO) 0.01 µg/mL; (organism code PP) 0.1 µg/mL; (organism code QQ) 50 µg/mL; (organism code RR) 0.39 µg/mL. Moreover, the MIC is 50 µg/mL (organism code SS); over 100 µg/mL (organism code TT); 0.78 µg/mL (organism code UU); 0.1 µg/mL (organism code VV); 2 µg/mL (organism code WW); 0.03 µg/mL (organism code XX). The MIC runs as follows: (organism code YY) 0.03 µg/mL; (organism code ZZ) over 128 µg/mL; (organism code ZZA) 0.25 µg/mL.
In the case of `CCC1OC(=O)C(C)C(=O)C(C)C(OC2OC(C)CC(N(C)C)C2O)C(C)(OCC(O)c2ccccc2)CC(C)C(=O)C(C)C2NC(=O)OC12C` (single isomer, unassigned) [Example 261B], the MIC is, setting by setting: (organism code AA) 3.1 µg/mL (≈ 4.31 µM); (organism code BB) 3.1 µg/mL (≈ 4.31 µM); (organism code CC) over 100 µg/mL; (organism code DD) 6.2 µg/mL (≈ 8.62 µM); (organism code EE) 3.1 µg/mL (≈ 4.31 µM); (organism code FF) 3.1 µg/mL (≈ 4.31 µM). Further, the MIC by setting is: (organism code GG) over 100 µg/mL; (organism code HH) 6.2 µg/mL (≈ 8.62 µM); (organism code II) 0.78 µg/mL (≈ 1.09 µM); (organism code JJ) 0.39 µg/mL (≈ 0.543 µM); (organism code KK) 0.39 µg/mL (≈ 0.543 µM); (organism code LL) 0.39 µg/mL (≈ 0.543 µM). In addition, the MIC reads like this: (organism code MM) over 100 µg/mL; (organism code NN) 0.78 µg/mL (≈ 1.09 µM); (organism code OO) 0.39 µg/mL (≈ 0.543 µM); (organism code PP) 1.56 µg/mL (≈ 2.17 µM); (organism code QQ) over 100 µg/mL; (organism code RR) 6.2 µg/mL (≈ 8.62 µM). Further, the MIC was over 100 µg/mL (organism code SS); over 100 µg/mL (organism code TT); 25 µg/mL (≈ 34.8 µM) (organism code UU); 6.2 µg/mL (≈ 8.62 µM) (organism code VV); 32 µg/mL (≈ 44.5 µM) (organism code WW); 0.5 µg/mL (≈ 0.696 µM) (organism code XX). The MIC reads like this: (organism code YY) 0.5 µg/mL (≈ 0.696 µM); (organism code ZZ) over 128 µg/mL; (organism code ZZA) 1 µg/mL (≈ 1.39 µM).
With `CC[C@H]1OC(=O)[C@H](C)C(=O)[C@H](C)[C@@H](O[C@@H]2O[C@H](C)C[C@H](N(C)C)[C@H]2O)[C@@](C)(OCCNCCc2ccccc2)C[C@@H](C)C(=O)[C@H](C)[C@@H](O)[C@]1(C)O` [Example 10], the MIC is, setting by setting: under setting [1], over 100 µg/mL; under setting [2], 6.2 µg/mL (≈ 8.6 µM); under setting [3], over 100 µg/mL; under setting [4], over 100 µg/mL; (Escherichia coli SS (code RR)) 1.56 µg/mL (≈ 2.16 µM); under setting [5], 64 µg/mL (≈ 88.8 µM). The compound further came in with an MIC under setting [6] of 1.56 µg/mL (≈ 2.16 µM); an MIC under setting [7] of 0.2 µg/mL (≈ 0.277 µM); an MIC under setting [8] of 12.5 µg/mL (≈ 17.3 µM); an MIC under setting [9] of 1.56 µg/mL (≈ 2.16 µM); an MIC under setting [10] of over 100 µg/mL; an MIC under setting [11] of 6.2 µg/mL (≈ 8.6 µM). Moreover, the MIC is, setting by setting: under setting [12], over 100 µg/mL; under setting [13], 6.2 µg/mL (≈ 8.6 µM); under setting [14], 6.2 µg/mL (≈ 8.6 µM); under setting [15], 6.2 µg/mL (≈ 8.6 µM); under setting [16], 6.2 µg/mL (≈ 8.6 µM); under setting [17], 6.2 µg/mL (≈ 8.6 µM). Moreover, the MIC runs as follows: under setting [18], 4 µg/mL (≈ 5.55 µM); under setting [19], over 128 µg/mL; under setting [20], 2 µg/mL (≈ 2.77 µM); under setting [21], 2 µg/mL (≈ 2.77 µM); under setting [22], 1.56 µg/mL (≈ 2.16 µM); under setting [23], 0.2 µg/mL (≈ 0.277 µM). Besides, the MIC runs as follows: under setting [24], over 100 µg/mL; (Streptococcus pyogenes EES61 (code LL)) 0.39 µg/mL (≈ 0.541 µM); under setting [25], 1.56 µg/mL (≈ 2.16 µM).
Consider `C=CCOC1(C)CC(C)C(=O)C(C)C(O)C(C)(O)C(CC)OC(=O)C(C)C(=O)C(C)C1OC1OC(C)CC(N(C)C)C1O` (stereo not drawn) [Example 1, Compound of Formula (VIII): X is O, R is allyl], for which the MIC is, setting by setting: under setting [1], over 100 µg/mL; under setting [2], 12.5 µg/mL; under setting [3], over 100 µg/mL; under setting [4], over 100 µg/mL; (Escherichia coli SS (code RR)) 12.5 µg/mL; under setting [5], over 128 µg/mL. Further, the MIC under setting [6] was 6.2 µg/mL; the MIC under setting [7] is 3.1 µg/mL; the MIC under setting [8] was over 100 µg/mL; the MIC under setting [9] came to 6.3 µg/mL; the MIC under setting [10] was over 100 µg/mL; the MIC under setting [11] is 50 µg/mL. Further, the MIC was over 100 µg/mL under setting [12]; 12.5 µg/mL under setting [13]; 25 µg/mL under setting [14]; 50 µg/mL under setting [15]; 6.2 µg/mL under setting [16]; 50 µg/mL under setting [17]. The MIC is, setting by setting: under setting [18], 8 µg/mL; under setting [19], over 128 µg/mL; under setting [20], 4 µg/mL; under setting [21], 4 µg/mL; under setting [22], 6.2 µg/mL; under setting [23], 25 µg/mL. Further, the MIC runs as follows: under setting [24], over 100 µg/mL; under setting [25], 12.5 µg/mL.
